What is called IC50 is the point on the concentration scale where inhibition reaches its midpoint. The low end stands for greater potency, the high end for weaker potency.

Here are results for 27 compounds from US20060142247A1, “Tricyclic heterocycles” (priority 2004, published 2006).

The test system of this assay is HCT 116 cells. In words: Viability assay HCT 116 cells (CellTiter-Glo). The assay is classed as cell-based. Particulars: Homo sapiens, HCT-116, 120 h, HCT 116 human colon carcinoma cells, 5 days incubation, CellTiter-Glo luminescence. The method in brief: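 Human colon carcinoma cells seeded at 1000/well in RPMI 1640 with GlutaMAX, FCS and Pen/Strep, incubated 24 h at 37 °C, then treated with 10 concentrations (30 μM to 0.0015 μM, 1:3). After 5 days, viability read by CellTiter-Glo ATP luminescence.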
Compound `CCN1C(=O)C(C)(C)c2cc3nc(-c4n[nH]c5ccccc45)[nH]c3cc21` [Example 3, 5-Ethyl-2-(1H-indazol-3-yl)-7,7-dimethyl-5,7-dihydro-3H-imidazo[4,5-f]indol-6-one] returned an IC50 of 100 to 1000 nM.
For `CC1(C)C(=O)N(CC(N)=O)c2cc3[nH]c(-c4n[nH]c5ccccc45)nc3cc21` [Example 37, 2-[2-(1H-Indazol-3-yl)-7,7-dimethyl-6-oxo-6,7-dihydro-3H-imidazo[4,5-f]indol-5-yl]-acetamide] the value was 100 to 1000 nM.
As for `CCOC(=O)CN1C(=O)C(C)(C)c2cc3nc(-c4n[nH]c5ccccc45)[nH]c3cc21` [Example 23, [2-(1H-Indazol-3-yl)-7,7-dimethyl-6-oxo-6,7-dihydro-3H-imidazo[4,5-f]indol-5-yl]-acetic acid ethyl ester], the figure is 100 to 1000 nM.
With `CC1(C)C(=O)N(CC(=O)NO)c2cc3[nH]c(-c4n[nH]c5ccccc45)nc3cc21` [Example 49, N-Hydroxy-2-[2-(1H-indazol-3-yl)-7,7-dimethyl-6-oxo-6,7-dihydro-3H-imidazo[4,5-f]indol-5-yl]-acetamide], the IC50 is 1000 to 10000 nM.
Take `CC1(C)C(=O)N(Cc2ccc(S(C)(=O)=O)cc2)c2cc3[nH]c(-c4n[nH]c5ccccc45)nc3cc21` [Example 27, 2-(1H-Indazol-3-yl)-5-(4-methanesulfonyl-benzyl)-7,7-dimethyl-5,7-dihydro-3H-imidazol[4,5-f]indol-6-one]: the IC50 fell in the range of 100 to 1000 nM.
As for `CC1C(=O)Nc2cc3[nH]c(-c4n[nH]c5ccccc45)nc3cc21` (stereo not drawn) [Example 11, 2-(1H-Indazol-3-yl)-7-methyl-5,7-dihydro-3H-imidazo[4,5-f]indol-6-one], the figure is 100 to 1000 nM.
For `COCCOCCN1C(=O)C(C)(C)c2cc3nc(-c4n[nH]c5ccccc45)[nH]c3cc21` [Example 17, 2-(1H-Indazol-3-yl)-5-[2-(2-methoxy-ethoxy)-ethyl]-7,7-dimethyl-5,7-dihydro-3H-imidazo[4,5-f]indol-6-one] the value was 100 to 1000 nM; for `CC1(C)C(=O)N(CCO[Si](C)(C)C(C)(C)C)c2cc3[nH]c(-c4n[nH]c5ccccc45)nc3cc21` [Example 28, 5-[2-(tert-Butyl-dimethyl-silanyloxy)-ethyl]-2-(1H-indazol-3-yl)-7,7-dimethyl-5,7-dihydro-3H-imidazo[4,5-f]indol-6-one], 100 to 1000 nM.
As for `O=C1Nc2cc3nc(-c4n[nH]c5ccccc45)[nH]c3cc2C12CCCC2` [Example 9, 2-(1H-indazol-3-yl)-spiro[7,7-cyclopentan-5,7-dihydro-3H-imidazo[4,5-f]indol]-6-one], the figure is 100 to 1000 nM; as for `CC1(C)C(=O)N(CCCN2CCOCC2)c2cc3[nH]c(-c4n[nH]c5ccccc45)nc3cc21` [Example 7, 2-(1H-indazol-3-yl)-7,7-dimethyl-5-(3-morpholin-4-yl-propyl)-5,7-dihydro-3H-imidazo[4,5-f]indol-6-one], 280 nM; as for `CCC1C(=O)Nc2cc3nc(-c4[nH]nc5ccccc45)[nH]c3cc21` (stereo not drawn) [Example 13, 7-Ethyl-2-(1H-indazol-3-yl)-5,7-dihydro-3H-imidazo[4,5-f]indol-6-one], 100 to 1000 nM.
`CC1(C)C(=O)Nc2cc3[nH]c(-c4n[nH]c5ccccc45)nc3cc21` [Example 8, 2-(1H-indazol-3-yl)-7,7-dimethyl-5,7-dihydro-3H-imidazo[4,5-f]indol-6-one] registered an IC50 of 100 to 1000 nM.
For `CC1(C)C(=O)N(CCCN2CCCCC2)c2cc3[nH]c(-c4n[nH]c5ccccc45)nc3cc21` [Example 19, 2-(1H-Indazol-3-yl)-7,7-dimethyl-5-(3-piperidin-1-yl-propyl)-5,7-dihydro-3H-imidazo[4,5-f]indol-6-one] the value was 100 to 1000 nM.
For `CC1(C)C(=O)N(CC(=O)Nc2ccccc2)c2cc3[nH]c(-c4n[nH]c5ccccc45)nc3cc21` [Example 43, 2-[2-(1H-Indazol-3-yl)-7,7-dimethyl-6-oxo-6,7-dihydro-3H-imidazo[4,5-f]indol-5-yl]-N-phenyl-acetamide] the value was 100 to 1000 nM; for `CC(C)N1C(=O)C(C)(C)c2cc3nc(-c4n[nH]c5ccccc45)[nH]c3cc21` [Example 6, 2-(1H-indazol-3-yl)-5-isopropyl-7,7-dimethyl-5,7-dihydro-3H-imidazo[4,5-f]indol-6-one], 100 to 1000 nM; for `CCCN1C(=O)C(C)(C)c2cc3nc(-c4n[nH]c5ccccc45)[nH]c3cc21` [Example 5, 2-(1H-indazol-3-yl)-7,7-dimethyl-5-propyl-5,7-dihydro-3H-imidazo[4,5-f]indol-6-one], 100 to 1000 nM.
As for `CC1(C)C(=O)N(CC#N)c2cc3[nH]c(-c4n[nH]c5ccccc45)nc3cc21` [Example 24, [2-(1H-Indazol-3-yl)-7,7-dimethyl-6-oxo-6,7-dihydro-3H-imidazo[4,5-f]indol-5-yl]-acetonitrile], the figure is 100 to 1000 nM; as for `C=CCCN1C(=O)C(C)(C)c2cc3nc(-c4n[nH]c5ccccc45)[nH]c3cc21` [Example 15, 5-But-3-enyl-2-(1H-indazol-3-yl)-7,7-dimethyl-5,7-dihydro-3H-imidazo[4,5-f]indol-6-one], 100 to 1000 nM.
For the compound `CC1(C)C(=O)N(CC(=O)O)c2cc3[nH]c(-c4n[nH]c5ccccc45)nc3cc21` [Example 36, [2-(1H-Indazol-3-yl)-7,7-dimethyl-6-oxo-6,7-dihydro-3H-imidazo[4,5-f]indol-5-yl]-acetic acid], the IC50 fell in the range of 1000 to 10000 nM.
As for `CC1(C)C(=O)N(CC(O)CO)c2cc3[nH]c(-c4n[nH]c5ccccc45)nc3cc21` (stereo not drawn) [Example 35, 5-(2,3-Dihydroxy-propyl)-2-(1H-indazol-3-yl)-7,7-dimethyl-5,7-dihydro-3H-imidazo [4,5-f]indol-6-one], the figure is 100 to 1000 nM; as for `CC1(C)C(=O)N(Cc2ccccc2)c2cc3[nH]c(-c4n[nH]c5ccccc45)nc3cc21` [Example 26, 5-Benzyl-2-(1H-indazol-3-yl)-7,7-dimethyl-5,7-dihydro-3H-imidazo[4,5-f]indol-6-one], 100 to 1000 nM.
For `CC1(C)C(=O)N(CCN)c2cc3[nH]c(-c4n[nH]c5ccccc45)nc3cc21` [Example 52, 5-(2-Amino-ethyl)-2-(1H-indazol-3-yl)-7,7-dimethyl-5,7-dihydro-3H-imidazo[4,5-f]indol-6-one] the value was 100 to 1000 nM.
For `CC1(C)C(=O)N(CC(=O)N2CCOCC2)c2cc3[nH]c(-c4n[nH]c5ccccc45)nc3cc21` [Example 40, 2-(1H-Indazol-3-yl)-7,7-dimethyl-5-(2-morpholin-4-yl-2-oxo-ethyl)-5,7-dihydro-3H-imidazo[4,5-f]indol-6-one], the half-inhibitory concentration (IC50) lay in the range of 100 to 1000 nM.
As for `CC1(C)C(=O)N(CC(=O)NCc2ccccc2)c2cc3[nH]c(-c4n[nH]c5ccccc45)nc3cc21` [Example 39, N-Benzyl-2-[2-(1H-indazol-3-yl)-7,7-dimethyl-6-oxo-6,7-dihydro-3H-imidazo[4,5-f]indol-5-yl]-acetamide], the figure is 100 to 1000 nM; as for `CN(C)CCCN1C(=O)C(C)(C)c2cc3nc(-c4n[nH]c5ccccc45)[nH]c3cc21` [Example 21, 5-(3-Dimethylamino-propyl)-2-(1H-indazol-3-yl)-7,7-dimethyl-5,7-dihydro-3H-imidazo[4,5-f]indol-6-one], 100 to 1000 nM.
For `C=CCN1C(=O)C(C)(C)c2cc3nc(-c4n[nH]c5ccccc45)[nH]c3cc21` [Example 2, 5-Allyl-2-(1H-indazol-3-yl)-7,7-dimethyl-5,7-dihydro-3H-imidazo[4,5-f]indol-6-one], the half-inhibitory concentration (IC50) worked out at 180 nM.
For `CC1(C)C(=O)N(CCO)c2cc3[nH]c(-c4n[nH]c5ccccc45)nc3cc21` [Example 34, 5-(2-Hydroxy-ethyl)-2-(1H-indazol-3-yl)-7,7-dimethyl-5,7-dihydro-3H-imidazo[4,5-f]indol-6-one] the value was 100 to 1000 nM.
